What was measured:
EGFR = assay: Western blot analysis of the protein level of EGFR; format: cell-based, human; details: 5 μM NAC and 1.25 μM sanguinarine
Experimental: (§1) Cells were lysed in RIPA lysis buffer with protease and phosphatase inhibitors added for total whole cell protein extraction. The concentration of the total protein extract was determined by Bio-Rad DCTM protein assay kit (Bio-Rad). Then samples were loaded and separated onto a 10% SDS-PAGE gel and then the separated proteins were transferred to a Nitrocellulose (NC) membrane. Membranes were blocked with 5% milk without fat in TBST for 1 hour at room temperature. Primary antibodies (1:1000 dilutions for Cell Signaling antibodies; 1:500 dilutions for Santa Cruz antibodies) were added and incubated overnight at 4° C. On the other day, membrane was washed by TBST for three times (5 mins/wash), while secondary fluorescent antibody (1:10000 dilutions) was added to membrane and incubated at room temperature for 1 hr. Actin was used as loading control and for normalization. The signal intensity of the membranes was detected by Odessy (LI-COR).
In Example 3, the protein level of EGFR after sanguinarine treatment with difference dosage and duration was analyzed.

[1] = tested on: H1975 (EGFR^L858R+T790M) cells; assay: Apoptosis by Annexin V/PI staining with flow cytometry; format: cell-based, human
Experimental: Annexin V/PI staining is used to detect early and late stages of apoptosis. According to the manufacturer's protocol (BD Pharmingen), 5×10^5 cells of the treated and control groups were harvested, washed, and double-stained with Annexin V/PI for 15 min at room temperature in dark. Then apoptotic cells were quantitatively counted by a flow cytometer (BD FACSAria III). Early stage of apoptotic cells were stained with Annexin V-positive and PI-negative, while the late stage of apoptotic cells were stained with Annexin V-positive and PI-positive.
Example 6 further studies if the sanguinarine-induced apoptosis in H1975 (EGFR^L858R+T790M) is in caspases-dependent manner H1975 cells were treated with 1.25 μM sanguinarine and 1.25 μM sanguinarine together with 50 μM pan-caspase inhibitor for 24 hrs.

JNK, p38 = assay: Western blot of phosphorylation of JNK and p38; format: cell-based, human; details: 5 μM NAC and 1.25 μM sanguinarine
Experimental: as §1
ROS intensity was increased with the increase of sanguinarine treatment time. Sanguinarine-induced apoptosis in H1975 cells, in which the cells were pre-treated with 5 μM NAC and a ROS generation inhibitor, was also studied. […] Also, P-EGFR 1045 as shown in FIG. 6 is a tyrosine(Y) phosphorylation site of EGFR at amino acid position 1045 (Y1045) and phosphorylation of this site will lead to activation of EGFR degradation after cbl docking to this site

[2] = tested on: H2228 (EML4-ALK fusion gene); details: method not stated; cited from earlier work

## CC(=O)N[C@@H](CS)C(=O)O [NAC]
EGFR
  EGFR degradation induced by sanguinarine: block
[1]; H1975, pre-treated with 5 μM NAC, sanguinarine
  apoptosis induced by sanguinarine after NAC pre-treatment: completely blocked
JNK, p38
  phosphorylation of JNK, p38 induced by sanguinarine: block

## COc1cc2ncnc(Nc3ccc(F)c(Cl)c3)c2cc1OCCCN1CCOCC1 [Gefitinib]
[2]
  Gefitinib Sensitivity: Resistant

## C[n+]1cc2c3c(ccc2c2ccc4cc5c(cc4c21)OCO5)OCO3 [sanguinarine]
[1]; H1975, 1.25 μM, 24 hrs
  more cell debris than control: 20%
[1]; H1975, 1.25 μM, 24 hrs, early stage (Q3)
  increase in early stage of apoptosis compared with the control group: 7.2 fold
